Holding throughout (assay): Screen Quest Fluo-8 No Wash Calcium Assay (Bz-ATP evoked Ca2+ influx, FLIPR)
Holding throughout (format): cell-based

The target in test [1] is T1, P2X7 receptor (Homo sapiens, UniProt Q99572).
T1 sequence (Q99572 1-595): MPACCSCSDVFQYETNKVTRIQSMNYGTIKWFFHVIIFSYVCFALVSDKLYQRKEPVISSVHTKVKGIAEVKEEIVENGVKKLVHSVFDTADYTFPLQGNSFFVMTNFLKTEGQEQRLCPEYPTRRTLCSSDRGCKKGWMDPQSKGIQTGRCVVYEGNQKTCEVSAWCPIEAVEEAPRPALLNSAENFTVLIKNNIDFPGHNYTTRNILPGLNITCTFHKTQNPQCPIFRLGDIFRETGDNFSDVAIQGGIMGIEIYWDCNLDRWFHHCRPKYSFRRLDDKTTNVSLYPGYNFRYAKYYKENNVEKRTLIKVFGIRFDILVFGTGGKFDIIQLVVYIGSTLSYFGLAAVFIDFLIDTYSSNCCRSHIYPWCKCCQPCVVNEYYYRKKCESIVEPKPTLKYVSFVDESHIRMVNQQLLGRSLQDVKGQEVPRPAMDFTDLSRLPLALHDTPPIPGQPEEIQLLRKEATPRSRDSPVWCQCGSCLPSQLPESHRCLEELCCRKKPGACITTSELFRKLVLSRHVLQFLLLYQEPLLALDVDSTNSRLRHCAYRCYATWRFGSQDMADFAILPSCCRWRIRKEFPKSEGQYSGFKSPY
Details: hP2X7 (IC50; nM); other: hP2X7; HEK-293 cells stably transfected with P2X7 receptor, Bz-ATP at EC80, Fluo-8 NW; potency. The conditions noted are these: hP2X7; HEK-293 cells stably transfected with P2X7 receptor, Bz-ATP at EC80, Fluo-8 NW; potency ranges A-D. The method, boiled down: (§1)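 Compounds were added to Fluo-8-loaded P2X7-transfected HEK-293 cells 5 min before an EC80 Bz-ATP challenge, and Ca2+ influx was then recorded for 3 min. Buffer held 0.3 mM Ca2+ and no Mg2+. Inhibition was normalised to A438079, giving IC50 values.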

Test [2] deals with T2, P2X7 receptor (Rattus norvegicus, UniProt Q64663).
T2 construct: rP2X7 (IC50; nM); other: rP2X7; HEK-293 cells stably transfected with P2X7 receptor, Bz-ATP at EC80, Fluo-8 NW; potency
T2 sequence (Q64663 1-595): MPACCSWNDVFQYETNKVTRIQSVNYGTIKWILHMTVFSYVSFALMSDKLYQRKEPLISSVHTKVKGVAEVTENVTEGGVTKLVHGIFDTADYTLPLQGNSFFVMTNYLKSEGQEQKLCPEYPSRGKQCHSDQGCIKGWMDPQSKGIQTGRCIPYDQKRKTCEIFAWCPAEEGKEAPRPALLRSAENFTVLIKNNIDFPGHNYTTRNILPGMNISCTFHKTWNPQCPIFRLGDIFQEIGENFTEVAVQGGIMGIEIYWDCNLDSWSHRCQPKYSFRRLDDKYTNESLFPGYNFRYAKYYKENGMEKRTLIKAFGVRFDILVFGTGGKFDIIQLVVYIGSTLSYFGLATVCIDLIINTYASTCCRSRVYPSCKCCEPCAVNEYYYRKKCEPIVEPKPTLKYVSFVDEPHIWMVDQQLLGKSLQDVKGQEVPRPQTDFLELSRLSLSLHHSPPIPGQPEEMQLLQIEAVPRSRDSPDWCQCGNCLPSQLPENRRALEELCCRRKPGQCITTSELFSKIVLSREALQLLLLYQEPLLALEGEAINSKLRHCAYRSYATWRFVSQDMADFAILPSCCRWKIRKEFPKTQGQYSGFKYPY
The conditions noted are these: rP2X7; HEK-293 cells stably transfected with P2X7 receptor, Bz-ATP at EC80, Fluo-8 NW; potency ranges A-D. The method, boiled down:
as §1

Test [3] addresses T3, P2X7 receptor (Mus musculus, UniProt Q9Z1M0).
T3 construct: mP2X7 (IC50; nM); other: mP2X7; HEK-293 cells stably transfected with P2X7 receptor, Bz-ATP at EC80, Fluo-8 NW; potency
T3 sequence (Q9Z1M0 1-595): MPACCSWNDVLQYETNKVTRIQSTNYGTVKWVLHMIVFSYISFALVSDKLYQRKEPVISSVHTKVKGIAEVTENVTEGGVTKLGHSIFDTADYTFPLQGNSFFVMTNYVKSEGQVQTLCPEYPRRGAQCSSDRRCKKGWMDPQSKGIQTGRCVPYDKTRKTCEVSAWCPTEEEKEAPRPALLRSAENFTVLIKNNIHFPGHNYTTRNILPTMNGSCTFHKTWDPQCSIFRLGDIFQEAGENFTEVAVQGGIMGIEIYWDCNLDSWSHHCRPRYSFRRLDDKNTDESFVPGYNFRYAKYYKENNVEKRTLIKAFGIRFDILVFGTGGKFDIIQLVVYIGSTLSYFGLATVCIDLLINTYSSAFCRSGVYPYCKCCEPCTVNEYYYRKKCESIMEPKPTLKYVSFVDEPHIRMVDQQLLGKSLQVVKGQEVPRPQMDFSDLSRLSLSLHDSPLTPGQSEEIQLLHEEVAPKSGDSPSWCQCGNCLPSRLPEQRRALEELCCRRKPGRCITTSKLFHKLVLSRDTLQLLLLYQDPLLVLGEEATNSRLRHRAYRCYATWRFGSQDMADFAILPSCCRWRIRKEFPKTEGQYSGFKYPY
The conditions noted are these: mP2X7; HEK-293 cells stably transfected with P2X7 receptor, Bz-ATP at EC80, Fluo-8 NW; potency ranges A-D. The method, boiled down: as §1

For the compound `O=c1onc(CC2CCC(F)(F)CC2)n1Cc1cncs1` [Example 193, 3-[(4,4-difluorocyclohexyl)methyl]-4-[(1,3-thiazol-5-yl)methyl]-1,2,4-oxadiazol-5(4H)-one], the results for the IC50 at P2X7 receptor [1], on P2X7 receptor [2] and at P2X7 receptor [3] were 1000 to 10000 nM, 200 to 1000 nM and 1000 to 10000 nM, respectively.

Take `Cc1cc(Cn2c(Cc3c(F)cccc3Cl)noc2=O)n(C)n1` [Example 46, 3-[(2-chloro-6-fluorophenyl)methyl]-4-[(1,3-dimethyl-1H-pyrazol-5-yl)methyl]-4,5-dihydro-1,2,4-oxadiazol-5-one]: the IC50 on P2X7 receptor [1], on P2X7 receptor [2] and on P2X7 receptor [3] was above 10000 nM throughout.

As to `O=c1onc(Cc2ccccc2)n1CC1CCCCC1` [Example 126, 3-benzyl-4-(cyclohexylmethyl)-4,5-dihydro-1,2,4-oxadiazol-5-one], the IC50 (in general, the concentration that gives 50% inhibition) at P2X7 receptor [1] fell in the range of 1000 to 10000 nM; at P2X7 receptor [2], 200 to 1000 nM; at P2X7 receptor [3], 1000 to 10000 nM.

On to `O=c1onc(Cc2c(F)cccc2Cl)n1Cc1cccc2ncccc12` [Example 30, 3-[(2-chloro-6-fluorophenyl)methyl]-4-(quinolin-5-ylmethyl)-4,5-dihydro-1,2,4-oxadiazol-5-one], for which the IC50 on P2X7 receptor [1], on P2X7 receptor [2] and on P2X7 receptor [3] was 1000 to 10000 nM each time.

For the compound `O=c1onc(Cc2cccnc2)n1CC1CCCCC1` [Example 123, 4-(cyclohexylmethyl)-3-(pyridin-3-ylmethyl)-4,5-dihydro-1,2,4-oxadiazol-5-one], the IC50 on P2X7 receptor [1], at P2X7 receptor [2] and at P2X7 receptor [3] was 1000 to 10000 nM in each case.

On to `O=c1onc(CC2CCC(F)(F)CC2)n1Cc1ccc(C(F)(F)F)cc1` [Example 166, 3-[(4,4-difluorocyclohexyl)methyl]-4-{[4-(trifluoromethyl)phenyl]methyl}-4,5-dihydro-1,2,4-oxadiazol-5-one], for which the half-inhibitory concentration (IC50) at P2X7 receptor [1], at P2X7 receptor [2] and at P2X7 receptor [3] was 1000 to 10000 nM throughout.

Take `O=c1onc(Cc2ccccc2C(F)(F)F)n1Cc1ccc(F)cc1` [Example 105, 4-[(4-fluorophenyl)methyl]-3-{[2-(trifluoromethyl)phenyl]methyl}-4,5-dihydro-1,2,4-oxadiazol-5-one]: the IC50 on P2X7 receptor [1], at P2X7 receptor [2] and at P2X7 receptor [3] was 1000 to 10000 nM throughout.

Consider `O=c1onc(Cc2cccc(C(F)(F)F)c2Cl)n1CC1CCC(F)(F)CC1` [Example 155, 3-{[2-chloro-3-(trifluoromethyl)phenyl]methyl}-4-[(4,4-difluorocyclohexyl)methyl]-4,5-dihydro-1,2,4-oxadiazol-5-one], for which the IC50 at P2X7 receptor [1] is below 200 nM; on P2X7 receptor [2], 200 to 1000 nM; at P2X7 receptor [3], 200 to 1000 nM.

For the compound `O=c1onc(Cc2ccccc2Cl)n1CC1CCC(F)(F)CC1` [Example 158, 3-[(2-chlorophenyl)methyl]-4-[(4,4-difluorocyclohexyl)methyl]-4,5-dihydro-1,2,4-oxadiazol-5-one], the half-maximal inhibitory concentration (IC50) at P2X7 receptor [1] was below 200 nM; on P2X7 receptor [2], below 200 nM; on P2X7 receptor [3], 200 to 1000 nM.

Consider `Cc1ncsc1Cn1c(CC2CCC(F)(F)CC2)noc1=O` [Example 200, 3-[(4,4-difluorocyclohexyl)methyl]-4-[(4-methyl-1,3-thiazol-5-yl)methyl]-1,2,4-oxadiazol-5(4H)-one], for which the concentration for half-maximal inhibition (IC50) on P2X7 receptor [1], on P2X7 receptor [2] and on P2X7 receptor [3] was 200 to 1000 nM in each case.

On to `O=c1onc(Cc2cccc(F)c2)n1CC1CCCCC1` [Example 125, 4-(cyclohexylmethyl)-3-[(3-fluorophenyl)methyl]-4,5-dihydro-1,2,4-oxadiazol-5-one], for which the results for the IC50 at P2X7 receptor [1], at P2X7 receptor [2] and at P2X7 receptor [3] were 1000 to 10000 nM, 200 to 1000 nM and 1000 to 10000 nM, respectively.

As for `Cc1cc(Cn2c(CC3CCC(F)(F)CC3)noc2=O)n(C)n1` [Example 195, 3-[(4,4-difluorocyclohexyl)methyl]-4-[(1,3-dimethyl-1H-pyrazol-5-yl)methyl]-1,2,4-oxadiazol-5(4H)-one], the IC50 at P2X7 receptor [1], at P2X7 receptor [2] and at P2X7 receptor [3] was 200 to 1000 nM throughout.
